From PubChem BioAssay AID248 (DTP/NCI, 2004)
Several values for one entry are separate records, joined by “and”; a condition that tells them apart may be missing. Identical values can stand only once. Toxic doses and inconclusive results are not listed. No stated cut-off is given here; in the data, active means T/C of 150% or more; inactive means T/C below 125%.

Tested on: L1210 leukemia ip in BDF1 mice, survival T/C
Assay: NCI In Vivo Anticancer Drug Screen. Data for tumor model L1210 Leukemia (intraperitoneal) in B6D2F1 (BDF1) mice
Conditions: higher = longer survival
How it was run: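 Antitumor effect is assessed in tumor-bearing animals. Survival in the compound arm is compared with a vehicle-dosed control arm and expressed as their quotient.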

Measured: T/C

COc1cccc2c1C(=O)c1c(O)c3c(c(O)c1C2=O)C[C@@](O)(C(=O)CO)C[C@@H]3OC1CC(N)C(O)C(C)O1 (stereo partly drawn)
inactive: endpoint: mean survival time, dose: 0.09 mg/kg/injection, schedule: Q01DX009 (ip), vehicle: saline 106 % of control | endpoint: mean survival time, dose: 0.18 mg/kg/injection, schedule: Q01DX009 (ip), vehicle: saline 107 % of control and 113 % of control | endpoint: mean survival time, dose: 0.2 mg/kg/injection, schedule: Q01DX009 (ip), vehicle: water 112 % of control | endpoint: mean survival time, dose: 0.28 mg/kg/injection, schedule: Q04DX002 (ip), vehicle: saline 110 % of control and 120 % of control | endpoint: mean survival time, dose: 0.3 mg/kg/injection, schedule: Q01DX015 (ip), vehicle: clinical formulation 116 % of control | endpoint: mean survival time, dose: 0.44 mg/kg/injection, schedule: Q01DX015 (ip), vehicle: clinical formulation 119 % of control | endpoint: mean survival time, dose: 0.5 mg/kg/injection, schedule: Q01DX003 (ip), vehicle: water 115 % of control | endpoint: mean survival time, dose: 0.5 mg/kg/injection, schedule: Q## X Z (ip), vehicle: water 113 % of control | endpoint: mean survival time, dose: 0.55 mg/kg/injection, schedule: Q04DX002 (ip), vehicle: saline 103 % of control and 108 % of control | endpoint: mean survival time, dose: 1.0 mg/kg/injection, schedule: Q01DX009 (sc), vehicle: clinical formulation 107 % of control | endpoint: mean survival time, dose: 1.0 mg/kg/injection, schedule: Q03HX024 (ip), vehicle: water 111 % of control | endpoint: mean survival time, dose: 1.0 mg/kg/injection, schedule: Q04DX004 (ip), vehicle: clinical formulation 117 % of control | endpoint: mean survival time, dose: 1.5 mg/kg/injection, schedule: Q01DX009 (sc), vehicle: clinical formulation 108 % of control | endpoint: mean survival time, dose: 2.0 mg/kg/injection, schedule: Q03HX024 (ip), vehicle: water 93 % of control | endpoint: mean survival time, dose: 2.2 mg/kg/injection, schedule: Q01DX009 (sc), vehicle: clinical formulation 113 % of control | endpoint: mean survival time, dose: 3.0 mg/kg/injection, schedule: Q01DX009 (ip), vehicle: saline 107 % of control | endpoint: mean survival time, dose: 3.3 mg/kg/injection, schedule: Q01DX009 (sc), vehicle: clinical formulation 117 % of control | endpoint: mean survival time, dose: 4.0 mg/kg/injection, schedule: Q01DX008 (ip), vehicle: saline 98 % of control | endpoint: mean survival time, dose: 4.9 mg/kg/injection, schedule: Q01DX009 (sc), vehicle: clinical formulation 110 % of control | endpoint: mean survival time, dose: 5.0 mg/kg/injection, schedule: Q01DX009 (ip), vehicle: saline 93 % of control | endpoint: mean survival time, dose: 20.0 mg/kg/injection, schedule: Q01DX001 (ip), vehicle: saline 108 % of control | endpoint: mean survival time, dose: 100.0 micrograms/kg/injection, schedule: Q03HX032 (ip), vehicle: clinical formulation 117 % of control | endpoint: mean survival time, dose: 150.0 micrograms/kg/injection, schedule: Q03HX032 (ip), vehicle: clinical formulation 120 % of control | endpoint: median survival time, dose: 0.12 mg/kg/injection, schedule: Q03HX008 (ip), vehicle: water 120 % of control | endpoint: median survival time, dose: 0.13 mg/kg/injection, schedule: Q03HX008 (ip), vehicle: water 119 % of control | endpoint: median survival time, dose: 0.23 mg/kg/injection, schedule: Q04DX003 (ip), vehicle: water 113 % of control | endpoint: median survival time, dose: 0.25 mg/kg/injection, schedule: Q01DX009 (ip), vehicle: water 115 % of control | endpoint: median survival time, dose: 0.28 mg/kg/injection, schedule: Q03HX008 (ip), vehicle: water 111 % of control | endpoint: median survival time, dose: 0.47 mg/kg/injection, schedule: Q03HX008 (ip), vehicle: water 111 % of control | endpoint: median survival time, dose: 0.5 mg/kg/injection, schedule: Q01DX001 (ip), vehicle: water 113 % of control and 116 % of control | endpoint: median survival time, dose: 0.5 mg/kg/injection, schedule: Q01DX009 (ip), vehicle: water 115 % of control and 119 % of control | endpoint: median survival time, dose: 0.5 mg/kg/injection, schedule: Q03HX024 (ip), vehicle: water 114 % of control | endpoint: median survival time, dose: 0.65 mg/kg/injection, schedule: Q01DX005 (sc), vehicle: water 110 % of control | endpoint: median survival time, dose: 0.65 mg/kg/injection, schedule: Q01DX009 (ip), vehicle: water 104 % of control | endpoint: median survival time, dose: 0.65 mg/kg/injection, schedule: Q03HX008 (sc), vehicle: water 110 % of control | endpoint: median survival time, dose: 0.75 mg/kg/injection, schedule: Q04DX003 (ip), vehicle: water 109 % of control | endpoint: median survival time, dose: 0.78 mg/kg/injection, schedule: Q03HX008 (ip), vehicle: water 105 % of control | endpoint: median survival time, dose: 1.0 mg/kg/injection, schedule: Q01DX009 (ip), vehicle: water 115 % of control | endpoint: median survival time, dose: 1.0 mg/kg/injection, schedule: Q03HX024 (ip), vehicle: water 93 % of control and 110 % of control | endpoint: median survival time, dose: 1.0 mg/kg/injection, schedule: Q04DX003 (ip), vehicle: water 119 % of control | endpoint: median survival time, dose: 1.0 mg/kg/injection, schedule: Q## X001 (ip), vehicle: saline 113 % of control | endpoint: median survival time, dose: 1.08 mg/kg/injection, schedule: Q01DX005 (sc), vehicle: water 105 % of control | endpoint: median survival time, dose: 1.08 mg/kg/injection, schedule: Q01DX009 (ip), vehicle: water 104 % of control and 113 % of control | endpoint: median survival time, dose: 1.17 mg/kg/injection, schedule: Q04DX003 (ip), vehicle: water 100 % of control | endpoint: median survival time, dose: 1.25 mg/kg/injection, schedule: Q04DX003 (ip), vehicle: water 115 % of control | endpoint: median survival time, dose: 1.5 mg/kg/injection, schedule: Q04DX003 (ip), vehicle: water 102 % of control | endpoint: median survival time, dose: 1.75 mg/kg/injection, schedule: Q04DX003 (ip), vehicle: water 100 % of control | endpoint: median survival time, dose: 1.8 mg/kg/injection, schedule: Q01DX001 (ip), vehicle: water 95 % of control and 113 % of control and 120 % of control | endpoint: median survival time, dose: 1.8 mg/kg/injection, schedule: Q01DX005 (sc), vehicle: water 110 % of control | endpoint: median survival time, dose: 1.8 mg/kg/injection, schedule: Q01DX009 (ip), vehicle: water 109 % of control and 113 % of control | endpoint: median survival time, dose: 1.8 mg/kg/injection, schedule: Q08DX002 (ip), vehicle: water 100 % of control and 118 % of control | endpoint: median survival time, dose: 2.0 mg/kg/injection, schedule: Q01DX009 (ip), vehicle: water 104 % of control | endpoint: median survival time, dose: 2.0 mg/kg/injection, schedule: Q## X001 (ip), vehicle: saline 118 % of control | endpoint: median survival time, dose: 2.6 mg/kg/injection, schedule: Q04DX003 (ip), vehicle: water 116 % of control | endpoint: median survival time, dose: 3.0 mg/kg/injection, schedule: Q01DX009 (ip), vehicle: water 109 % of control | endpoint: median survival time, dose: 3.0 mg/kg/injection, schedule: Q08DX002 (ip), vehicle: water 100 % of control and 118 % of control | endpoint: median survival time, dose: 3.0 mg/kg/injection, schedule: Q12DX002 (ip), vehicle: water 117 % of control | endpoint: median survival time, dose: 3.9 mg/kg/injection, schedule: Q01DX001 (ip), vehicle: water 105 % of control | endpoint: median survival time, dose: 5.0 mg/kg/injection, schedule: Q12DX002 (ip), vehicle: water 119 % of control | endpoint: median survival time, dose: 5.9 mg/kg/injection, schedule: Q04DX003 (ip), vehicle: water 111 % of control | endpoint: median survival time, dose: 6.0 mg/kg/injection, schedule: Q01DX001 (ip), vehicle: water 115 % of control | endpoint: median survival time, dose: 6.0 mg/kg/injection, schedule: Q04DX003 (ip), vehicle: water 103 % of control | endpoint: median survival time, dose: 8.0 mg/kg/injection, schedule: Q04DX003 (ip), vehicle: water 94 % of control and 97 % of control (2×) | endpoint: median survival time, dose: 8.3 mg/kg/injection, schedule: Q04DX003 (ip), vehicle: water 116 % of control | endpoint: median survival time, dose: 8.4 mg/kg/injection, schedule: Q08DX002 (ip), vehicle: water 104 % of control and 118 % of control | endpoint: median survival time, dose: 8.9 mg/kg/injection, schedule: Q04DX003 (ip), vehicle: water 100 % of control | endpoint: median survival time, dose: 10.0 mg/kg/injection, schedule: Q04DX003 (ip), vehicle: water 94 % of control and 100 % of control and 103 % of control | endpoint: median survival time, dose: 10.0 mg/kg/injection, schedule: Q08DX002 (ip), vehicle: water 111 % of control | endpoint: median survival time, dose: 12.0 mg/kg/injection, schedule: Q01DX001 (ip), vehicle: water 120 % of control | endpoint: median survival time, dose: 13.3 mg/kg/injection, schedule: Q01DX001 (ip), vehicle: water 105 % of control | endpoint: median survival time, dose: 14.0 mg/kg/injection, schedule: Q08DX002 (ip), vehicle: water 95 % of control and 104 % of control | endpoint: median survival time, dose: 24.0 mg/kg/injection, schedule: Q01DX001 (ip), vehicle: water 114 % of control

Cn1c[n+](C)cc1C(=O)[O-]
inactive: endpoint: mean survival time, dose: 100.0 mg/kg/injection, schedule: Q01DX009 (ip), vehicle: saline 91 % of control | endpoint: mean survival time, dose: 100.0 mg/kg/injection, schedule: Q04DX003 (ip), vehicle: saline 97 % of control | endpoint: mean survival time, dose: 200.0 mg/kg/injection, schedule: Q01DX009 (ip), vehicle: saline 97 % of control | endpoint: mean survival time, dose: 200.0 mg/kg/injection, schedule: Q04DX003 (ip), vehicle: saline 102 % of control | endpoint: mean survival time, dose: 400.0 mg/kg/injection, schedule: Q01DX009 (ip), vehicle: saline 95 % of control | endpoint: mean survival time, dose: 400.0 mg/kg/injection, schedule: Q04DX003 (ip), vehicle: saline 109 % of control

CCCC[S][Pb]([c]1ccccc1)([c]1ccccc1)[c]1ccccc1
inactive: endpoint: mean survival time, dose: 100.0 mg/kg/injection, schedule: Q01DX001 (ip), vehicle: Klucel (hydroxypropylcellulose) (HPC) 101 % of control | endpoint: mean survival time, dose: 200.0 mg/kg/injection, schedule: Q01DX001 (ip), vehicle: Klucel (hydroxypropylcellulose) (HPC) 106 % of control

c1ccc(C2c3cccc4c3C3c5c2cccc5C(c2ccccc2)c2cccc(c23)C4c2ccccc2)cc1 (stereo not drawn)
inactive: endpoint: mean survival time, dose: 100.0 mg/kg/injection, schedule: Q04DX003 (ip), vehicle: saline with Tween-80 108 % of control | endpoint: mean survival time, dose: 200.0 mg/kg/injection, schedule: Q04DX003 (ip), vehicle: saline with Tween-80 95 % of control | endpoint: mean survival time, dose: 400.0 mg/kg/injection, schedule: Q04DX003 (ip), vehicle: saline with Tween-80 100 % of control
